A short description of series [1]: Stability test 1: survival rate of peptide in phosphate buffer (pH 7.0) after storage, HPLC. In kind it is physicochemical. To be noted: 100 μM peptide, 0.1% phosphate buffer pH 7.0, 40° C., 4 weeks (Table 4). How it is done:
The 1.0 mM peptide solutions were then diluted with phosphate buffer to 100 μM. […] The prepared peptide solutions were incubated for one month or 2 months in a 40° C. thermostatic bath to obtain stored samples.
Using the total weight of the aqueous peptide solution and storage vessel as the specimen weight, measurements were recorded as the specimen weights before storage and the specimen weights after storage under different storage conditions. The empty weight of the storage vessel was also measured, and the moisture permeability was determined by the following formula.
After stirring the standard sample and the stored samples with a vortex mixer, each peptide solution was transferred to an HPLC vial (Deactivated Qsert vial by Waters Co.). Reverse-phase HPLC (HPLC system: Prominence by Shimadzu Corp.) was conducted under the conditions shown in Table 3 below for analysis of the peptide solutions, and chromatograms were obtained.
The peak area value for the peptide in the chromatogram was calculated, and the survival rate (survival rate before correction for water) was calculated using formula (2). The survival rate after correction for water was also calculated from the survival rate before correction for water using formula (3) to take into account the permeability of the container.
Peptide solutions prepared by the same method as [Measuring sample preparation 1] for the peptides synthesized in Example 2 (peptides 13 to 16) were incubated for 2 weeks and 8 weeks in a thermostatic bath at 40° C. to obtain stored samples.
Peptide solutions prepared by the same method as [Measuring sample preparation 1] for the peptides synthesized in Example 2 (peptides 17 to 21) were incubated for 4 weeks in a thermostatic bath at 40° C. to obtain stored samples.
A peptide solution prepared by the same method as [Measuring sample preparation 1] for peptide 22 synthesized in Example 2 was incubated for 1 week and 4 weeks in a thermostatic bath at 40° C. to obtain stored samples.

Assay in series [2]: as above
In kind it is physicochemical. To be noted: 100 μM peptide, 0.1% phosphate buffer pH 7.0, head prints 80° C., 8 weeks (Table 4).

Non-standard residues stand in square brackets, D forms with d. Residues, ends and D or L forms follow the SMILES beside them. ξ: configuration not given here. ξAla(tetrazol-5-yl) = NC(Cc1nnn[nH]1)C(=O)O; Aib = CC(C)(N)C(=O)O

With `CC[C@H](C)[C@H](NC(=O)CNC(=O)C(Cc1nnn[nH]1)NC(=O)[C@H](CO)NC(=O)[C@@H](N)Cc1c[nH]cn1)C(=O)N[C@@H](Cc1ccccc1)C(=O)N[C@@H](C)C(=O)NC(Cc1nnn[nH]1)C(=O)N[C@@H](CO)C(=O)N[C@@H](Cc1ccc(O)cc1)C(=O)N[C@@H](C)C(=O)N[C@@H](CCCNC(=N)N)C(=O)N[C@@H](Cc1ccc(O)cc1)C(=O)N[C@@H](CCCNC(=N)N)C(=O)N[C@@H](CCCCN)C(=O)N[C@@H](CCC(N)=O)C(=O)N[C@@H](CCSC)C(=O)N[C@@H](C)C(=O)N[C@H](C(=O)N[C@@H](CCCCN)C(=O)N[C@@H](CCCCN)C(=O)N[C@@H](Cc1ccc(O)cc1)C(=O)N[C@@H](CC(C)C)C(=O)N[C@@H](C)C(=O)N[C@@H](C)C(=O)N[C@H](C(=O)N[C@@H](CC(C)C)C(N)=O)C(C)C)C(C)C` (stereo partly shown) [Peptide 2, HSTzGI FATzSY ARYRK QMAVK KYLAA VL] (H-HS[ξAla(tetrazol-5-yl)]GIFA[ξAla(tetrazol-5-yl)]SYARYRKQMAVKKYLAAVL-NH2), in series [1], the “survival rate after correction for water, 40° C. 4 week” value (shortened to “survival rate … 40° C. 4 week”) was 91.9%. In addition, in series [2], the “survival rate after correction for water, 80° C. 8 week” value (“survival rate … 80° C. 8 week” below) was found to be 83.7%.
For `CC[C@H](C)[C@H](NC(=O)CNC(=O)C(Cc1nnn[nH]1)NC(=O)[C@H](CO)NC(=O)[C@@H](N)Cc1c[nH]cn1)C(=O)N[C@@H](Cc1ccccc1)C(=O)N[C@H](C(=O)NC(Cc1nnn[nH]1)C(=O)N[C@@H](CO)C(=O)N[C@@H](Cc1ccc(O)cc1)C(=O)N[C@@H](CO)C(=O)N[C@@H](CCCNC(=N)N)C(=O)N[C@@H](Cc1ccc(O)cc1)C(=O)N[C@@H](CCCNC(=N)N)C(=O)N[C@@H](CCCCN)C(=O)N[C@@H](CCC(N)=O)C(=O)N[C@@H](CCSC)C(=O)N[C@@H](C)C(=O)N[C@H](C(=O)N[C@@H](CCCCN)C(=O)N[C@@H](CCCCN)C(=O)N[C@@H](Cc1ccc(O)cc1)C(=O)N[C@@H](CC(C)C)C(=O)N[C@@H](C)C(=O)N[C@@H](C)C(=O)N[C@H](C(N)=O)C(C)C)C(C)C)[C@@H](C)O` (stereo partly shown) [Peptide 9, HSTzGI FTTzSY SRYRK QMAVK KYLAA V] (H-HS[ξAla(tetrazol-5-yl)]GIFT[ξAla(tetrazol-5-yl)]SYSRYRKQMAVKKYLAAV-NH2), in series [1], the “survival rate … 40° C. 4 week” value is recorded as 92.4%. In addition, the “survival rate … 80° C. 8 week” value in series [2] is 83.3%.
`CC[C@H](C)[C@H](NC(=O)CNC(=O)C(Cc1nnn[nH]1)NC(=O)[C@H](CO)NC(=O)[C@@H](N)Cc1c[nH]cn1)C(=O)N[C@@H](Cc1ccccc1)C(=O)N[C@@H](C)C(=O)NC(Cc1nnn[nH]1)C(=O)N[C@@H](CO)C(=O)N[C@@H](Cc1ccc(O)cc1)C(=O)NC(C)(C)C(=O)N[C@@H](CCCNC(=N)N)C(=O)N[C@@H](Cc1ccc(O)cc1)C(=O)N[C@@H](CCCNC(=N)N)C(=O)N[C@@H](CCCCN)C(=O)N[C@@H](CCC(N)=O)C(=O)N[C@@H](CCSC)C(=O)N[C@@H](C)C(=O)N[C@H](C(=O)N[C@@H](CCCCN)C(=O)N[C@@H](CCCCN)C(=O)N[C@@H](Cc1ccc(O)cc1)C(=O)N[C@@H](CC(C)C)C(=O)N[C@@H](C)C(=O)N[C@@H](C)C(=O)N[C@H](C(=O)N[C@@H](CC(C)C)C(N)=O)C(C)C)C(C)C` (stereo partly shown) [Peptide 5, HSTzGI FATzSY AiRYRK QMAVK KYLAA VL] (H-HS[ξAla(tetrazol-5-yl)]GIFA[ξAla(tetrazol-5-yl)]SY[Aib]RYRKQMAVKKYLAAVL-NH2): the “survival rate … 40° C. 4 week” value in series [1] was determined as 94.4%. The “survival rate … 80° C. 8 week” value in series [2] worked out at 85.4%.
On to `CC[C@H](C)[C@H](NC(=O)CNC(=O)C(Cc1nnn[nH]1)NC(=O)[C@H](CO)NC(=O)[C@@H](N)Cc1c[nH]cn1)C(=O)N[C@@H](Cc1ccccc1)C(=O)N[C@@H](C)C(=O)NC(Cc1nnn[nH]1)C(=O)NC(C)(C)C(=O)N[C@@H](Cc1ccc(O)cc1)C(=O)NC(C)(C)C(=O)N[C@@H](CCCNC(=N)N)C(=O)N[C@@H](Cc1ccc(O)cc1)C(=O)N[C@@H](CCCNC(=N)N)C(=O)N[C@@H](CCCCN)C(=O)N[C@@H](CCC(N)=O)C(=O)N[C@@H](CCSC)C(=O)N[C@@H](C)C(=O)N[C@H](C(=O)N[C@@H](CCCCN)C(=O)N[C@@H](CCCCN)C(=O)N[C@@H](Cc1ccc(O)cc1)C(=O)N[C@@H](CC(C)C)C(=O)N[C@@H](C)C(=O)N[C@@H](C)C(=O)N[C@H](C(=O)N[C@@H](CC(C)C)C(N)=O)C(C)C)C(C)C` (stereo partly shown) [Peptide 6, HSTzGI FATzAiY AiRYRK QMAVK KYLAA VL] (H-HS[ξAla(tetrazol-5-yl)]GIFA[ξAla(tetrazol-5-yl)][Aib]Y[Aib]RYRKQMAVKKYLAAVL-NH2), for which the “survival rate … 40° C. 4 week” value in series [1] stood at 94.0%. Moreover, the “survival rate … 80° C. 8 week” value in series [2] was 87.5%.
Regarding `CC[C@H](C)[C@H](NC(=O)CNC(=O)C(Cc1nnn[nH]1)NC(=O)[C@H](CO)NC(=O)[C@@H](N)Cc1c[nH]cn1)C(=O)N[C@@H](Cc1ccccc1)C(=O)N[C@@H](C)C(=O)NC(Cc1nnn[nH]1)C(=O)N[C@@H](C)C(=O)N[C@@H](Cc1ccc(O)cc1)C(=O)N[C@@H](CO)C(=O)N[C@@H](CCCNC(=N)N)C(=O)N[C@@H](Cc1ccc(O)cc1)C(=O)N[C@@H](CCCNC(=N)N)C(=O)N[C@@H](CCCCN)C(=O)N[C@@H](CCC(N)=O)C(=O)N[C@@H](CCSC)C(=O)N[C@@H](C)C(=O)N[C@H](C(=O)N[C@@H](CCCCN)C(=O)N[C@@H](CCCCN)C(=O)N[C@@H](Cc1ccc(O)cc1)C(=O)N[C@@H](CC(C)C)C(=O)N[C@@H](C)C(=O)N[C@@H](C)C(=O)N[C@H](C(=O)N[C@@H](CC(C)C)C(N)=O)C(C)C)C(C)C` (stereo partly shown) [Peptide 1, HSTzGI FATzAY SRYRK QMAVK KYLAA VL] (H-HS[ξAla(tetrazol-5-yl)]GIFA[ξAla(tetrazol-5-yl)]AYSRYRKQMAVKKYLAAVL-NH2), the “survival rate … 40° C. 4 week” value in series [1] worked out at 91.1%. The “survival rate … 80° C. 8 week” value in series [2] was found to be 81.5%.
As for `CC[C@H](C)[C@H](NC(=O)CNC(=O)C(Cc1nnn[nH]1)NC(=O)[C@H](CO)NC(=O)[C@@H](N)Cc1c[nH]cn1)C(=O)N[C@@H](Cc1ccccc1)C(=O)N[C@H](C(=O)NC(Cc1nnn[nH]1)C(=O)N[C@@H](CO)C(=O)N[C@@H](Cc1ccc(O)cc1)C(=O)N[C@@H](CO)C(=O)N[C@@H](CCCNC(=N)N)C(=O)N[C@@H](Cc1ccc(O)cc1)C(=O)N[C@@H](CCCNC(=N)N)C(=O)N[C@@H](CCCCN)C(=O)N[C@@H](CCC(N)=O)C(=O)N[C@@H](CCSC)C(=O)N[C@@H](C)C(=O)N[C@H](C(=O)N[C@@H](CCCCN)C(=O)N[C@@H](CCCCN)C(=O)N[C@@H](Cc1ccc(O)cc1)C(=O)N[C@@H](CC(C)C)C(=O)N[C@@H](C)C(N)=O)C(C)C)[C@@H](C)O` (stereo partly shown) [Peptide 8, HSTzGI FTTzSY SRYRK QMAVK KYLA] (H-HS[ξAla(tetrazol-5-yl)]GIFT[ξAla(tetrazol-5-yl)]SYSRYRKQMAVKKYLA-NH2), in series [1], the “survival rate … 40° C. 4 week” value is reported as 95.1%. Besides, in series [2], the “survival rate … 80° C. 8 week” value amounted to 84.1%.
Regarding `CC[C@H](C)[C@H](NC(=O)CNC(=O)C(Cc1nnn[nH]1)NC(=O)[C@H](CO)NC(=O)[C@@H](N)Cc1c[nH]cn1)C(=O)N[C@@H](Cc1ccccc1)C(=O)N[C@H](C(=O)NC(Cc1nnn[nH]1)C(=O)NC(C)(C)C(=O)N[C@@H](Cc1ccc(O)cc1)C(=O)NC(C)(C)C(=O)N[C@@H](CCCNC(=N)N)C(=O)N[C@@H](Cc1ccc(O)cc1)C(=O)N[C@@H](CCCNC(=N)N)C(=O)N[C@@H](CCCCN)C(=O)N[C@@H](CCC(N)=O)C(=O)N[C@@H](CCSC)C(=O)N[C@@H](C)C(=O)N[C@H](C(=O)N[C@@H](CCCCN)C(=O)N[C@@H](CCCCN)C(=O)N[C@@H](Cc1ccc(O)cc1)C(=O)N[C@@H](CC(C)C)C(=O)N[C@@H](C)C(=O)N[C@@H](C)C(=O)N[C@H](C(=O)N[C@@H](CC(C)C)C(N)=O)C(C)C)C(C)C)[C@@H](C)O` (stereo partly shown) [Peptide 7, HSTzGI FTTzAiY AiRYRK QMAVK KYLAA VL] (H-HS[ξAla(tetrazol-5-yl)]GIFT[ξAla(tetrazol-5-yl)][Aib]Y[Aib]RYRKQMAVKKYLAAVL-NH2), the “survival rate … 40° C. 4 week” value in series [1] was found to be 91.8%. For the same compound, the “survival rate … 80° C. 8 week” value in series [2] came to 83.5%.
With `CC[C@H](C)[C@H](NC(=O)CNC(=O)C(Cc1nnn[nH]1)NC(=O)[C@H](CO)NC(=O)[C@@H](N)Cc1c[nH]cn1)C(=O)N[C@@H](Cc1ccccc1)C(=O)N[C@@H](C)C(=O)NC(Cc1nnn[nH]1)C(=O)NC(C)(C)C(=O)N[C@@H](Cc1ccc(O)cc1)C(=O)N[C@@H](CO)C(=O)N[C@@H](CCCNC(=N)N)C(=O)N[C@@H](Cc1ccc(O)cc1)C(=O)N[C@@H](CCCNC(=N)N)C(=O)N[C@@H](CCCCN)C(=O)N[C@@H](CCC(N)=O)C(=O)N[C@@H](CCSC)C(=O)N[C@@H](C)C(=O)N[C@H](C(=O)N[C@@H](CCCCN)C(=O)N[C@@H](CCCCN)C(=O)N[C@@H](Cc1ccc(O)cc1)C(=O)N[C@@H](CC(C)C)C(=O)N[C@@H](C)C(=O)N[C@@H](C)C(=O)N[C@H](C(=O)N[C@@H](CC(C)C)C(N)=O)C(C)C)C(C)C` (stereo partly shown) [Peptide 4, HSTzGI FATzAiY SRYRK QMAVK KYLAA VL] (H-HS[ξAla(tetrazol-5-yl)]GIFA[ξAla(tetrazol-5-yl)][Aib]YSRYRKQMAVKKYLAAVL-NH2), the “survival rate … 40° C. 4 week” value in series [1] is 95.4%. The “survival rate … 80° C. 8 week” value in series [2] is recorded as 88.4%.

Values taken from US20250263459A1, “STABILIZED PACAP PEPTIDE” (SENJU PHARMACEUTICAL CO., LTD., priority 2019, published 2025).
